{
  "source": "patent US6420399B1",
  "about": "“Topical ophthalmic mast cell stabilizers for treating allergic eye disease” (Alcon Manufacturing, Ltd., priority 1999, dated 2002)",
  "key": {"mast cells": {"system": "mast cells", "conditions": "concentrations higher than those with antihistaminic / stabilizing activity; cited from earlier work"}, "[1]": {"test": "Surface Activity Rating: change in surface pressure of SOPC monolayer in Langmuir trough", "format": "physicochemical", "conditions": "initial surface pressure 30 mN/m, 24° C.", "text": "The Surface Activity Rating is obtained by determining the interaction of an amphipathic anti-allergy drug (“test compound”) in buffer alone with a phospholipid monolayer. Test compound/mast cell membrane interaction is mimicked in a phospholipid monolayer spread onto an aqueous buffer in a modified Langmuir trough. In this system, test compound-membrane interaction is quantified by determining the change in surface pressure (Δπ in mN/m) of a monomolecular film of 1-stearoyl-2-oleoyl-sn-glycero-3-phosphocholine (SOPC) spread at an initial surface pressure of 28-32 mN/m on an aqueous buffer sub-phase. The initial surface pressure of 28-32 mN/m is chosen because this pressure mimics that of most mammalian cell membranes. […]\nSurface pressure is measured using an automated interfacial monitor-controller built around a Cahn 27 electrobalance equipped with a 24 ga. nichrome wire Wilhelmy probe. […]\nThe effect of test compound on surface pressure is determined by a continuous exchange of the aqueous phase with a concentrated solution of the test compound in buffer. […] The concentration of test compound in the aqueous phase is determined from the fraction of sub-phase volume exchanged and the concentration of the solute in the concentrated solution. […]"}, "[2]": {"system": "human conjunctival mast cells", "conditions": "purified preparations of human conjunctival mast cells; Yanni et al. 1996; cited from earlier work"}},
  "data": [
    {"smiles": "O=C(O)c1cc(=O)c2c(OCC(O)COc3cccc4oc(C(=O)O)cc(=O)c34)cccc2o1", "note": "[cromolyn sodium]", "values": [
      {"measurement": "effect on histamine release from mast cells as a function of concentration", "setting": "mast cells", "value": "biphasic behavior"}
    ]},
    {"smiles": "CN1CCC(=C2c3ccccc3CC(=O)c3sccc32)CC1", "note": "[ketotifen, 4,9-dihydro-4-(1-methyl-4-piperidinyl-idene)-10H-benzo[4,5]cyclohepta-[1,2-b]thiophen-10-one]", "values": [
      {"measurement": "increase in surface pressure (Surface Activity Rating)", "setting": "[1]; pH 7.5, concentration range of 0-3.5 mM", "value": 15, "unit": "mN/m"},
      {"measurement": "effect on histamine release as a function of concentration", "setting": "[2]", "value": "biphasic behavior"}
    ]},
    {"smiles": "CN(C)CC/C=C1/c2ccccc2COc2ccc(CC(=O)O)cc21", "note": "[olopatadine, Z-11-(3-dimethylaminopropylidene)-6,11-dihydrodibenz[b,e]oxepin-2-acetic acid]", "values": [
      {"measurement": "increase in surface pressure (Surface Activity Rating)", "setting": "[1]; pH 7.5, concentration in aqueous sub-phase increased from 0 to 5 mM", "value": 7.1, "unit": "mN/m"},
      {"measurement": "effect on histamine release from mast cells as a function of concentration", "setting": "mast cells", "value": "does not provoke a release of histamine from mast cells"}
    ]}
  ]
}
